Experimental data as given in patent US10246712B2, “Genetic or pharmacological reduction of PERK enhances cortical- and hippocampus-dependent cognitive function” (Carmel-Haifa University Economic Corp. Ltd, priority 2015, dated 2019).

Tests used:
ATF4 = experiment: Immunoblot of ATF4 protein levels in rat insular cortex (IC); format: in vivo; settings: 1 μl, 100 nM injection to the IC; n=16; data not shown
Procedure: The rats were cannulated as described in Barki-Harrington et al. (2009). Briefly, the rats were anesthetized by administration of equithesin (0.3 ml/100 g), comprising 2.12% (w/v) MgSO4, 10% (v/v) ethanol, 39.1% (v/v) propyleneglycol, 0.98% (w/v) sodium pentobarbital, and 4.2% (w/v) chloral hydrate. They were restrained in a stereotactic frame (Steolting Europe, Dublin-Ireland) and stainless steel guide cannulae (23-gauge) were bilaterally implanted into the insular cortex, angled at (with reference to bregma), anteroposterior=+1.2 mm, lateral±5.5 mm, and ventral 5.0 mm (1 mm ahead of injecting cannula). Two skull screws were inserted into the skull, and acrylic dental cement was applied to secure the cannulae in position. […]
(§1) At the end of the behavioral procedure, the brains were removed, and snap-frozen in liquid nitrogen. […] Protein content was determined with the BCA Protein Assay Kit (GE Healthcare). […]
Samples were prepared in SDS sample buffer, subjected to 7.5-10% SDS-PAGE and Western blot analysis. […] The immunoblots were quantified with a CCD camera and Quantity One software (Bio-Rad, USA). Each sample was measured relative to the background. Phosphorylation levels were calculated as the ratio between chemiluminescence values of the antibody directed against the phosphoproteins and those of the antibody directed against the phosphorylation state independent forms of the proteins.

p-eIF2α = experiment: Immunoblot of p-eIF2α levels in rat insular cortex (IC); format: in vivo; settings: 1 μl, 100 nM stereotactic injection to the IC, compared to vehicle; n=15; data not shown
Procedure: For virus infusions, rats were first anesthetized with Ketamine (120 mg/kg) and Xylazine (6 mg/kg) and placed into a stereotactic frame (Steolting Europe, Dublin—Ireland) (Using a 32-gauge stainless steel injector attached to a stereotactic infusion pump, rats received 1 μl of lentivirus encoding PERK shRNA or lentivirus harboring a scrambled sequence over 10 min into the insular cortex (anteroposterior, +1.2 mm relative to bregma; lateral, ±5.5 mm; ventral, −6.0 mm) according to the atlas of Paxinos, G. & Watson, C. (2006). The injector was lets in place for 5 min before and after infusion to minimize fluid retraction. The rats were allowed at least 7 days to recover from the surgery before any behavior experiments were conducted.
The rats were cannulated as described in Barki-Harrington et al. (2009). Briefly, the rats were anesthetized by administration of equithesin (0.3 ml/100 g), comprising 2.12% (w/v) MgSO4, 10% (v/v) ethanol, 39.1% (v/v) propyleneglycol, 0.98% (w/v) sodium pentobarbital, and 4.2% (w/v) chloral hydrate. […]
as §1

Compound: Cn1cc(-c2ccc3c(c2)CCN3C(=O)Cc2cccc(C(F)(F)F)c2)c2c(N)ncnc21 [GSK2606414, 7-methyl-5-(1-{[3-(trifluoromethyl)phenyl]acetyl}-2,3-dihydro-1H-indol-5-yl)-7H-pyrrolo[2,3-d]pyrimidin-4-amine]
- reduction in ATF4 protein levels (ATF4): 30%
- reduction in p-eIF2α levels (p-eIF2α): 40%
